# Source: the supplement of paper PMC9663587
# Legend:
# YKL-5-124 = compound: C=CC(=O)Nc1ccc(C(=O)Nc2[nH]nc3c2CN(C(=O)N[C@H](CN(C)C)c2ccccc2)C3(C)C)cc1 [YKL-5-124]; assay: increase in dead-cell fraction, 72 h; higher = more death;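 note: breast cancer cell lines in 384-well plates, stained with Hoechst plus LIVE/DEAD far red dye and imaged, cells above an LDR intensity threshold counted dead, Hoechst-negative corpses included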
# BSJ-03-123 = compound: CC(=O)c1c(C)c2cnc(Nc3ccc(N4CCN(CCOCCOCCOCCNC(=O)COc5cccc6c5C(=O)N(C5CCC(=O)NC5=O)C6=O)CC4)cn3)nc2n(C2CCCC2)c1=O [BSJ-03-123]; assay: as above
# [1] = compound: CC(=O)c1c(C)c2cnc(Nc3ccc(N4CCNCC4)cn3)nc2n(C2CCCC2)c1=O; assay: as above
# [2] = compound: CCN1CCN(Cc2ccc(Nc3ncc(F)c(-c4cc(F)c5nc(C)n(C(C)C)c5c4)n3)nc2)CC1; assay: as above
# Neratinib/HKI272 [3] = compound: T1, CCOc1cc2ncc(C#N)c(Nc3ccc(OCc4ccccn4)c(Cl)c3)c2cc1NC(=O)/C=C/CN(C)C [Neratinib/HKI272]; assay: as above
# [4] = compound: CCc1cnn2c(NCc3ccc[n+]([O-])c3)cc(N3CCCC[C@H]3CCO)nc12; assay: as above
# LEE011/Ribociclib = compound: CN(C)C(=O)c1cc2cnc(Nc3ccc(N4CCNCC4)cn3)nc2n1C1CCCC1 [LEE011/Ribociclib]; assay: as above
# THZ531 = compound: CN(C)C/C=C/C(=O)Nc1ccc(C(=O)N2CCC[C@@H](Nc3ncc(Cl)c(-c4c[nH]c5ccccc45)n3)C2)cc1 [THZ531]; assay: as above
# THZ1 [5] = compound: T2, CN(C)C/C=C/C(=O)Nc1ccc(C(=O)Nc2cccc(Nc3ncc(Cl)c(-c4c[nH]c5ccccc45)n3)c2)cc1 [THZ1]; assay: as above
# Flavopiridol = compound: CN1CC[C@H](c2c(O)cc(O)c3c(=O)cc(-c4ccccc4Cl)oc23)[C@H](O)C1 [Flavopiridol]; assay: as above
# Neratinib/HKI272 [6] = compound: T1, Neratinib/HKI272; assay: GR value, 72 h; higher = faster growth (1 = untreated, <0 = killing);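 note: breast cancer and non-malignant breast epithelial lines, nine half-log doses, viable cells counted by Hoechst and LIVE/DEAD dye imaging versus time-zero plates and DMSO controls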
# THZ1 [7] = compound: T2, THZ1; assay: as above
cell line,measurement,setting,value
MDAMB330,increase in dead-cell fraction,YKL-5-124; 0.001 µM,0.0025
same,increase in dead-cell fraction,YKL-5-124; 0.003162 µM,0.0078
same,increase in dead-cell fraction,YKL-5-124; 0.01 µM,0.0057
same,increase in dead-cell fraction,YKL-5-124; 0.03162 µM,0.0038
same,increase in dead-cell fraction,YKL-5-124; 0.1 µM,0.0034
same,increase in dead-cell fraction,YKL-5-124; 0.3162 µM,0.0041
same,increase in dead-cell fraction,YKL-5-124; 1 µM,0.0016
same,increase in dead-cell fraction,YKL-5-124; 3.162 µM,0.0166
same,increase in dead-cell fraction,YKL-5-124; 10 µM,0.131
same,increase in dead-cell fraction,BSJ-03-123; 0.001 µM,0.0018
same,increase in dead-cell fraction,BSJ-03-123; 0.003162 µM,0.0001
same,increase in dead-cell fraction,BSJ-03-123; 0.01 µM,0.0015
same,increase in dead-cell fraction,BSJ-03-123; 0.03162 µM,0.003
same,increase in dead-cell fraction,BSJ-03-123; 0.1 µM,0.0019
same,increase in dead-cell fraction,BSJ-03-123; 0.3162 µM,0.0031
same,increase in dead-cell fraction,BSJ-03-123; 1 µM,0.0019
same,increase in dead-cell fraction,BSJ-03-123; 3.162 µM,0.0034
same,increase in dead-cell fraction,BSJ-03-123; 10 µM,0.0354
same,increase in dead-cell fraction,[1]; 0.0003162 µM,-0.001
same,increase in dead-cell fraction,[1]; 0.001 µM,-0.0006
same,increase in dead-cell fraction,[1]; 0.003162 µM,-0.001
same,increase in dead-cell fraction,[1]; 0.01 µM,-0.0033
same,increase in dead-cell fraction,[1]; 0.03162 µM,-0.0012
same,increase in dead-cell fraction,[1]; 0.1 µM,-0.0017
same,increase in dead-cell fraction,[1]; 0.3162 µM,0.0031
same,increase in dead-cell fraction,[1]; 1 µM,0.0053
same,increase in dead-cell fraction,[1]; 3.162 µM,0.0031
same,increase in dead-cell fraction,[2]; 0.001 µM,0.0005
same,increase in dead-cell fraction,[2]; 0.003162 µM,-0.0003
same,increase in dead-cell fraction,[2]; 0.01 µM,0.0039
same,increase in dead-cell fraction,[2]; 0.03162 µM,0.003
same,increase in dead-cell fraction,[2]; 0.1 µM,0.0014
same,increase in dead-cell fraction,[2]; 0.3162 µM,0.0018
same,increase in dead-cell fraction,[2]; 1 µM,0.0017
same,increase in dead-cell fraction,[2]; 3.162 µM,0.0048
same,increase in dead-cell fraction,[2]; 10 µM,0.0109
same,increase in dead-cell fraction,Neratinib/HKI272 [3]; 0.0003162 µM,-0.0001
same,increase in dead-cell fraction,Neratinib/HKI272 [3]; 0.001 µM,0.0011
same,increase in dead-cell fraction,Neratinib/HKI272 [3]; 0.003162 µM,0.0102
same,increase in dead-cell fraction,Neratinib/HKI272 [3]; 0.01 µM,0.043
same,increase in dead-cell fraction,Neratinib/HKI272 [3]; 0.03162 µM,0.0716
same,increase in dead-cell fraction,Neratinib/HKI272 [3]; 0.1 µM,0.0731
same,increase in dead-cell fraction,Neratinib/HKI272 [3]; 0.3162 µM,0.0685
same,increase in dead-cell fraction,Neratinib/HKI272 [3]; 1 µM,0.0784
same,increase in dead-cell fraction,Neratinib/HKI272 [3]; 3.162 µM,0.0756
same,increase in dead-cell fraction,[4]; 0.0001 µM,-0.0012
same,increase in dead-cell fraction,[4]; 0.0003162 µM,-0.0001
same,increase in dead-cell fraction,[4]; 0.001 µM,0.0032
same,increase in dead-cell fraction,[4]; 0.003162 µM,0.0022
same,increase in dead-cell fraction,[4]; 0.01 µM,0.0023
same,increase in dead-cell fraction,[4]; 0.03162 µM,0.0691
same,increase in dead-cell fraction,LEE011/Ribociclib; 0.001 µM,0.0031
same,increase in dead-cell fraction,LEE011/Ribociclib; 0.003162 µM,0.0013
same,increase in dead-cell fraction,LEE011/Ribociclib; 0.01 µM,0.0054
same,increase in dead-cell fraction,LEE011/Ribociclib; 0.03162 µM,0.0111
same,increase in dead-cell fraction,LEE011/Ribociclib; 0.1 µM,0.0037
same,increase in dead-cell fraction,LEE011/Ribociclib; 0.3162 µM,-0.0005
same,increase in dead-cell fraction,LEE011/Ribociclib; 1 µM,-0.0028
same,increase in dead-cell fraction,LEE011/Ribociclib; 3.162 µM,0.0128
same,increase in dead-cell fraction,LEE011/Ribociclib; 10 µM,0.0025
same,increase in dead-cell fraction,THZ531; 0.0001 µM,0.0039
same,increase in dead-cell fraction,THZ531; 0.0003162 µM,-0.0007
same,increase in dead-cell fraction,THZ531; 0.001 µM,0.0004
same,increase in dead-cell fraction,THZ531; 0.003162 µM,0.0018
same,increase in dead-cell fraction,THZ531; 0.01 µM,0.0041
same,increase in dead-cell fraction,THZ531; 0.03162 µM,0.0164
same,increase in dead-cell fraction,THZ531; 0.1 µM,0.664
same,increase in dead-cell fraction,THZ531; 0.3162 µM,0.519
same,increase in dead-cell fraction,THZ531; 1 µM,0.413
same,increase in dead-cell fraction,THZ1 [5]; 0.0001 µM,0.0016
same,increase in dead-cell fraction,THZ1 [5]; 0.0003162 µM,0.0039
same,increase in dead-cell fraction,THZ1 [5]; 0.001 µM,0.0043
same,increase in dead-cell fraction,THZ1 [5]; 0.003162 µM,0.0044
same,increase in dead-cell fraction,THZ1 [5]; 0.01 µM,0.0071
same,increase in dead-cell fraction,THZ1 [5]; 0.03162 µM,0.105
same,increase in dead-cell fraction,THZ1 [5]; 0.1 µM,0.359
same,increase in dead-cell fraction,THZ1 [5]; 0.3162 µM,0.389
same,increase in dead-cell fraction,THZ1 [5]; 1 µM,0.311
same,increase in dead-cell fraction,Flavopiridol; 0.0001 µM,-0.0007
same,increase in dead-cell fraction,Flavopiridol; 0.0003162 µM,0.0052
same,increase in dead-cell fraction,Flavopiridol; 0.001 µM,-0.0013
same,increase in dead-cell fraction,Flavopiridol; 0.003162 µM,-0.0006
same,increase in dead-cell fraction,Flavopiridol; 0.01 µM,-0.0015
same,increase in dead-cell fraction,Flavopiridol; 0.03162 µM,0.0024
same,increase in dead-cell fraction,Flavopiridol; 0.1 µM,-0.0007
same,increase in dead-cell fraction,Flavopiridol; 0.3162 µM,0.0097
same,increase in dead-cell fraction,Flavopiridol; 1 µM,0.25
same,GR value,Neratinib/HKI272 [6]; 0.0003162 µM,0.967 GR
same,GR value,Neratinib/HKI272 [6]; 0.001 µM,0.831 GR
same,GR value,Neratinib/HKI272 [6]; 0.003162 µM,0.218 GR
same,GR value,Neratinib/HKI272 [6]; 0.01 µM,-0.306 GR
same,GR value,Neratinib/HKI272 [6]; 0.03162 µM,-0.546 GR
same,GR value,Neratinib/HKI272 [6]; 0.1 µM,-0.592 GR
same,GR value,Neratinib/HKI272 [6]; 0.3162 µM,-0.599 GR
same,GR value,Neratinib/HKI272 [6]; 1 µM,-0.656 GR
same,GR value,Neratinib/HKI272 [6]; 3.162 µM,-0.62 GR
same,GR value,THZ1 [7]; 0.0001 µM,1.19 GR
same,GR value,THZ1 [7]; 0.0003162 µM,0.925 GR
same,GR value,THZ1 [7]; 0.001 µM,1.1 GR
same,GR value,THZ1 [7]; 0.003162 µM,0.734 GR
same,GR value,THZ1 [7]; 0.01 µM,0.455 GR
same,GR value,THZ1 [7]; 0.03162 µM,-0.545 GR
same,GR value,THZ1 [7]; 0.1 µM,-0.924 GR
same,GR value,THZ1 [7]; 0.3162 µM,-0.898 GR
same,GR value,THZ1 [7]; 1 µM,-0.945 GR
